ChEMBL document CHEMBL4138181, “Synthesis, molecular docking, and QSAR study of sulfonamide-based indoles as aromatase inhibitors” (Eur J Med Chem, 2018)

system: aromatase; assay: Selectivity index, ratio of IC50 for GFP-expressing African green monkey Vero cells to IC50 for aromatase (unknown origin); type: toxicity; settings: read-out: Ratio IC50

| Compound | selectivity ratio |
| --- | --- |
| COc1ccc(S(=O)(=O)NCCc2c(C(c3ccccc3O)c3[nH]c4ccccc4c3CCNS(=O)(=O)c3ccc(OC)cc3)[nH]c3ccccc23)cc1 | > 81.7 |
| CCn1c2ccccc2c2ccc(C(c3[nH]c4ccccc4c3CCNS(=O)(=O)c3ccc(Cl)cc3)c3[nH]c4ccccc4c3CCNS(=O)(=O)c3ccc(Cl)cc3)cc21 | > 14.7 |
| O=S(=O)(NCCc1c(C(c2ccc(F)cc2)c2[nH]c3ccccc3c2CCNS(=O)(=O)c2ccc(C(F)(F)F)cc2)[nH]c2ccccc12)c1ccc(C(F)(F)F)cc1 | 3.42 |
| O=[N+]([O-])c1ccc(S(=O)(=O)NCCc2c(C(c3ccccc3)c3[nH]c4ccccc4c3CCNS(=O)(=O)c3ccc([N+](=O)[O-])cc3)[nH]c3ccccc23)cc1 | > 5.73 |
| O=[N+]([O-])c1ccccc1S(=O)(=O)NCCc1c(C(c2ccccc2O)c2[nH]c3ccccc3c2CCNS(=O)(=O)c2ccccc2[N+](=O)[O-])[nH]c2ccccc12 | > 13.7 |
| O=S(=O)(NCCc1c(C(c2ccc(F)cc2)c2[nH]c3ccccc3c2CCNS(=O)(=O)c2ccc(Cl)cc2)[nH]c2ccccc12)c1ccc(Cl)cc1 | > 11.9 |
| O=S(=O)(NCCc1c(C(c2ccc(O)cc2)c2[nH]c3ccccc3c2CCNS(=O)(=O)c2ccc(C(F)(F)F)cc2)[nH]c2ccccc12)c1ccc(C(F)(F)F)cc1 | 10.2 |
| O=S(=O)(NCCc1c(C(c2ccc(Br)cc2)c2[nH]c3ccccc3c2CCNS(=O)(=O)c2ccc(C(F)(F)F)cc2)[nH]c2ccccc12)c1ccc(C(F)(F)F)cc1 | 7.3 |
| N#Cc1ccc(C(c2[nH]c3ccccc3c2CCNS(=O)(=O)c2ccc(Cl)cc2)c2[nH]c3ccccc3c2CCNS(=O)(=O)c2ccc(Cl)cc2)cc1 | > 11.6 |
| O=[N+]([O-])c1cccc(S(=O)(=O)NCCc2c(C(c3ccc(O)cc3)c3[nH]c4ccccc4c3CCNS(=O)(=O)c3cccc([N+](=O)[O-])c3)[nH]c3ccccc23)c1 | > 27.4 |
| O=S(=O)(NCCc1c(C(c2ccc(C(F)(F)F)cc2)c2[nH]c3ccccc3c2CCNS(=O)(=O)c2ccc(Br)cc2)[nH]c2ccccc12)c1ccc(Br)cc1 | > 14.4 |
| O=[N+]([O-])c1cccc(S(=O)(=O)NCCc2c(C(c3ccccc3O)c3[nH]c4ccccc4c3CCNS(=O)(=O)c3cccc([N+](=O)[O-])c3)[nH]c3ccccc23)c1 | > 37 |
| O=C1Nc2ccccc2C1(c1[nH]c2ccccc2c1CCNS(=O)(=O)c1ccc(Cl)cc1)c1[nH]c2ccccc2c1CCNS(=O)(=O)c1ccc(Cl)cc1 | > 7.54 |
| COc1ccc(S(=O)(=O)NCCc2c(C(c3cc(OC)c(O)c(OC)c3)c3[nH]c4ccccc4c3CCNS(=O)(=O)c3ccc(OC)cc3)[nH]c3ccccc23)cc1 | > 24.2 |
| O=[N+]([O-])c1ccc(C(c2[nH]c3ccccc3c2CCNS(=O)(=O)c2ccc(Br)cc2)c2[nH]c3ccccc3c2CCNS(=O)(=O)c2ccc(Br)cc2)cc1 | > 20.8 |
| O=S(=O)(NCCc1c(C(c2ccc(C(F)(F)F)cc2)c2[nH]c3ccccc3c2CCNS(=O)(=O)c2ccc(C(F)(F)F)cc2)[nH]c2ccccc12)c1ccc(C(F)(F)F)cc1 | > 24.4 |
| COc1ccc(S(=O)(=O)NCCc2c(C(c3ccccc3)c3[nH]c4ccccc4c3CCNS(=O)(=O)c3ccc(OC)cc3)[nH]c3ccccc23)cc1 | > 19.1 |

biological target: T1, Aromatase (Homo sapiens, UniProt P11511); assay: Inhibition of aromatase (unknown origin) using O-benzyl fluorescein benzyl ester as substrate in presence of NADPH-generating system by fluorescence assay; settings: not given
T1 sequence (P11511 whole entry): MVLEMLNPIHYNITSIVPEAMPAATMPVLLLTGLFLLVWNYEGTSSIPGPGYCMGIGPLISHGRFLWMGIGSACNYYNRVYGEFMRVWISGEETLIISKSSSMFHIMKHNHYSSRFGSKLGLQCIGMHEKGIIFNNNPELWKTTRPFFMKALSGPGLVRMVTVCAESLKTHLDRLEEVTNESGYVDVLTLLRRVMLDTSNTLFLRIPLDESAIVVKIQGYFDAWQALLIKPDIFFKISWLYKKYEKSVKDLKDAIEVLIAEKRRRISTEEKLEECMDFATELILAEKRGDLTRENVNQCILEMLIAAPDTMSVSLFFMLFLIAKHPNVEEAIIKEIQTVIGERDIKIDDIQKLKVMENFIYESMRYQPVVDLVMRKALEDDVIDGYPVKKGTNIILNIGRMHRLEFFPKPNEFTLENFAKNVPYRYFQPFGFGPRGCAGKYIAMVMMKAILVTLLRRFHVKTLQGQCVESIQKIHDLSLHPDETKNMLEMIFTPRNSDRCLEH

| Compound | IC50 |
| --- | --- |
| O=S(=O)(NCCc1c(C(c2ccc(F)cc2)c2[nH]c3ccccc3c2CCNS(=O)(=O)c2ccc(C(F)(F)F)cc2)[nH]c2ccccc12)c1ccc(C(F)(F)F)cc1 | 4.4 µM |
| O=[N+]([O-])c1ccccc1S(=O)(=O)NCCc1c(C(c2ccccc2O)c2[nH]c3ccccc3c2CCNS(=O)(=O)c2ccccc2[N+](=O)[O-])[nH]c2ccccc12 | 4.6 µM |
| O=S(=O)(NCCc1c(C(c2ccc(O)cc2)c2[nH]c3ccccc3c2CCNS(=O)(=O)c2ccc(C(F)(F)F)cc2)[nH]c2ccccc12)c1ccc(C(F)(F)F)cc1 | 1.3 µM |
| O=S(=O)(NCCc1c(C(c2ccc(Br)cc2)c2[nH]c3ccccc3c2CCNS(=O)(=O)c2ccc(C(F)(F)F)cc2)[nH]c2ccccc12)c1ccc(C(F)(F)F)cc1 | 3.4 µM |
| O=[N+]([O-])c1cccc(S(=O)(=O)NCCc2c(C(c3ccc(O)cc3)c3[nH]c4ccccc4c3CCNS(=O)(=O)c3cccc([N+](=O)[O-])c3)[nH]c3ccccc23)c1 | 2.3 µM |
| O=S(=O)(NCCc1c(C(c2ccc(C(F)(F)F)cc2)c2[nH]c3ccccc3c2CCNS(=O)(=O)c2ccc(Br)cc2)[nH]c2ccccc12)c1ccc(Br)cc1 | 3.8 µM |
| O=[N+]([O-])c1cccc(S(=O)(=O)NCCc2c(C(c3ccccc3O)c3[nH]c4ccccc4c3CCNS(=O)(=O)c3cccc([N+](=O)[O-])c3)[nH]c3ccccc23)c1 | 1.7 µM |
| COc1ccc(S(=O)(=O)NCCc2c(C(c3cc(OC)c(O)c(OC)c3)c3[nH]c4ccccc4c3CCNS(=O)(=O)c3ccc(OC)cc3)[nH]c3ccccc23)cc1 | 2.5 µM |
| O=S(=O)(NCCc1c(C(c2ccc(C(F)(F)F)cc2)c2[nH]c3ccccc3c2CCNS(=O)(=O)c2ccc(C(F)(F)F)cc2)[nH]c2ccccc12)c1ccc(C(F)(F)F)cc1 | 2.3 µM |

Second part, the compound after the results:

| IC50 | Compound |
| --- | --- |
| 0.8 µM | COc1ccc(S(=O)(=O)NCCc2c(C(c3ccccc3O)c3[nH]c4ccccc4c3CCNS(=O)(=O)c3ccc(OC)cc3)[nH]c3ccccc23)cc1 |
| 3.9 µM | CCn1c2ccccc2c2ccc(C(c3[nH]c4ccccc4c3CCNS(=O)(=O)c3ccc(Cl)cc3)c3[nH]c4ccccc4c3CCNS(=O)(=O)c3ccc(Cl)cc3)cc21 |
| 11.2 µM | O=[N+]([O-])c1ccc(S(=O)(=O)NCCc2c(C(c3ccccc3)c3[nH]c4ccccc4c3CCNS(=O)(=O)c3ccc([N+](=O)[O-])cc3)[nH]c3ccccc23)cc1 |
| 5.4 µM | O=S(=O)(NCCc1c(C(c2ccc(F)cc2)c2[nH]c3ccccc3c2CCNS(=O)(=O)c2ccc(Cl)cc2)[nH]c2ccccc12)c1ccc(Cl)cc1 |
| 5.5 µM | N#Cc1ccc(C(c2[nH]c3ccccc3c2CCNS(=O)(=O)c2ccc(Cl)cc2)c2[nH]c3ccccc3c2CCNS(=O)(=O)c2ccc(Cl)cc2)cc1 |
| 8.3 µM | O=C1Nc2ccccc2C1(c1[nH]c2ccccc2c1CCNS(=O)(=O)c1ccc(Cl)cc1)c1[nH]c2ccccc2c1CCNS(=O)(=O)c1ccc(Cl)cc1 |
| 2.7 µM | O=[N+]([O-])c1ccc(C(c2[nH]c3ccccc3c2CCNS(=O)(=O)c2ccc(Br)cc2)c2[nH]c3ccccc3c2CCNS(=O)(=O)c2ccc(Br)cc2)cc1 |
| 3.5 µM | COc1ccc(S(=O)(=O)NCCc2c(C(c3ccccc3)c3[nH]c4ccccc4c3CCNS(=O)(=O)c3ccc(OC)cc3)[nH]c3ccccc23)cc1 |

system: Vero; assay: Cytotoxicity against GFP-expressing African green monkey Vero cells after 4 days by fluorescence assay; type: cell-based; settings: Chlorocebus sabaeus, 96 h

| Compound | IC50 |
| --- | --- |
| Cc1c2ccncc2c(C)c2c1[nH]c1ccccc12 [ELLIPTECINE] | 1.94 µM |
| COc1ccc(S(=O)(=O)NCCc2c(C(c3ccccc3O)c3[nH]c4ccccc4c3CCNS(=O)(=O)c3ccc(OC)cc3)[nH]c3ccccc23)cc1 | > 50 µg/mL |
| CCn1c2ccccc2c2ccc(C(c3[nH]c4ccccc4c3CCNS(=O)(=O)c3ccc(Cl)cc3)c3[nH]c4ccccc4c3CCNS(=O)(=O)c3ccc(Cl)cc3)cc21 | > 50 µg/mL |
| O=S(=O)(NCCc1c(C(c2ccc(F)cc2)c2[nH]c3ccccc3c2CCNS(=O)(=O)c2ccc(C(F)(F)F)cc2)[nH]c2ccccc12)c1ccc(C(F)(F)F)cc1 | 15.1 µM |
| O=[N+]([O-])c1ccc(S(=O)(=O)NCCc2c(C(c3ccccc3)c3[nH]c4ccccc4c3CCNS(=O)(=O)c3ccc([N+](=O)[O-])cc3)[nH]c3ccccc23)cc1 | > 50 µg/mL |
| O=[N+]([O-])c1ccccc1S(=O)(=O)NCCc1c(C(c2ccccc2O)c2[nH]c3ccccc3c2CCNS(=O)(=O)c2ccccc2[N+](=O)[O-])[nH]c2ccccc12 | > 50 µg/mL |
| O=S(=O)(NCCc1c(C(c2ccc(F)cc2)c2[nH]c3ccccc3c2CCNS(=O)(=O)c2ccc(Cl)cc2)[nH]c2ccccc12)c1ccc(Cl)cc1 | > 50 µg/mL |
| O=S(=O)(NCCc1c(C(c2ccc(O)cc2)c2[nH]c3ccccc3c2CCNS(=O)(=O)c2ccc(C(F)(F)F)cc2)[nH]c2ccccc12)c1ccc(C(F)(F)F)cc1 | 13.3 µM |
| O=S(=O)(NCCc1c(C(c2ccc(Br)cc2)c2[nH]c3ccccc3c2CCNS(=O)(=O)c2ccc(C(F)(F)F)cc2)[nH]c2ccccc12)c1ccc(C(F)(F)F)cc1 | 24.8 µM |
| N#Cc1ccc(C(c2[nH]c3ccccc3c2CCNS(=O)(=O)c2ccc(Cl)cc2)c2[nH]c3ccccc3c2CCNS(=O)(=O)c2ccc(Cl)cc2)cc1 | > 50 µg/mL |
| O=[N+]([O-])c1cccc(S(=O)(=O)NCCc2c(C(c3ccc(O)cc3)c3[nH]c4ccccc4c3CCNS(=O)(=O)c3cccc([N+](=O)[O-])c3)[nH]c3ccccc23)c1 | > 50 µg/mL |
| O=S(=O)(NCCc1c(C(c2ccc(C(F)(F)F)cc2)c2[nH]c3ccccc3c2CCNS(=O)(=O)c2ccc(Br)cc2)[nH]c2ccccc12)c1ccc(Br)cc1 | > 50 µg/mL |
| O=[N+]([O-])c1cccc(S(=O)(=O)NCCc2c(C(c3ccccc3O)c3[nH]c4ccccc4c3CCNS(=O)(=O)c3cccc([N+](=O)[O-])c3)[nH]c3ccccc23)c1 | > 50 µg/mL |
| O=C1Nc2ccccc2C1(c1[nH]c2ccccc2c1CCNS(=O)(=O)c1ccc(Cl)cc1)c1[nH]c2ccccc2c1CCNS(=O)(=O)c1ccc(Cl)cc1 | > 50 µg/mL |
| COc1ccc(S(=O)(=O)NCCc2c(C(c3cc(OC)c(O)c(OC)c3)c3[nH]c4ccccc4c3CCNS(=O)(=O)c3ccc(OC)cc3)[nH]c3ccccc23)cc1 | > 50 µg/mL |
| O=[N+]([O-])c1ccc(C(c2[nH]c3ccccc3c2CCNS(=O)(=O)c2ccc(Br)cc2)c2[nH]c3ccccc3c2CCNS(=O)(=O)c2ccc(Br)cc2)cc1 | > 50 µg/mL |
| O=S(=O)(NCCc1c(C(c2ccc(C(F)(F)F)cc2)c2[nH]c3ccccc3c2CCNS(=O)(=O)c2ccc(C(F)(F)F)cc2)[nH]c2ccccc12)c1ccc(C(F)(F)F)cc1 | > 50 µg/mL |
| COc1ccc(S(=O)(=O)NCCc2c(C(c3ccccc3)c3[nH]c4ccccc4c3CCNS(=O)(=O)c3ccc(OC)cc3)[nH]c3ccccc23)cc1 | > 50 µg/mL |
